The text below walks through data of US8946282B2, “Indolin-2-one derivatives as protein kinase inhibitors” (Annji Pharmaceutical Co., Ltd., priority 2012, dated 2015).

A value given as a limit tells only on which side of the number the result lay.

One data set has as its target T1, FLT-3 (Homo sapiens, UniProt P36888).
T1 sequence (P36888 27-993): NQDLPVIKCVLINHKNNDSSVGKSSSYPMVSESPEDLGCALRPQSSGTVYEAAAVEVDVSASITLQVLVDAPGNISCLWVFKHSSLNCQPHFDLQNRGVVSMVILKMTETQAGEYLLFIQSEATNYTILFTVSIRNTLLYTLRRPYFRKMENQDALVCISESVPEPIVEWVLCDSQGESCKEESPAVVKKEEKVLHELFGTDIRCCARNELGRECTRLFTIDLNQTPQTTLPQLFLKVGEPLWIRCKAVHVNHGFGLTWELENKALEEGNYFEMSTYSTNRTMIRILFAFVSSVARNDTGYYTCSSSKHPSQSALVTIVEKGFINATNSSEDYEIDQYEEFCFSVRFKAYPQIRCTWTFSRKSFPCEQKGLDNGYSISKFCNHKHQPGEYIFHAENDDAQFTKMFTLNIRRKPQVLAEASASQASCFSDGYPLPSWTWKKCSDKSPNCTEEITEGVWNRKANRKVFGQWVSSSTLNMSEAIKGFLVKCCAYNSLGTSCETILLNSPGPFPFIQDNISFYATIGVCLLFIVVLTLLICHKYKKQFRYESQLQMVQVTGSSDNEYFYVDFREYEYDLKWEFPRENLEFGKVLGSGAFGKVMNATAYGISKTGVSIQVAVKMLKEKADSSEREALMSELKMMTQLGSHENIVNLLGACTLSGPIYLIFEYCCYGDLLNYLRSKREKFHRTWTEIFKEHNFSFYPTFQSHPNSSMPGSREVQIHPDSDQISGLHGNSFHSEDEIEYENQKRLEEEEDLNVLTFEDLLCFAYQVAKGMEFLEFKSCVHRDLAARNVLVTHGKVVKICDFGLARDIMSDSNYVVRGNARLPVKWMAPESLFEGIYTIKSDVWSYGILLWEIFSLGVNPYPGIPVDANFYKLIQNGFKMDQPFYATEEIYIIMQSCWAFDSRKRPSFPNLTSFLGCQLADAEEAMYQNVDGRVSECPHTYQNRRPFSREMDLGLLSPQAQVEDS
Nature of the data set: radioisotope-based P81 filter-binding assay, FLT-3 kinase. The data set is classed as biochemical. The following applies: averaged from two independent dose-response curves; read-out: Enzyme assay IC50 FLT-3. How it is done: (§1) Compounds of formula (I)-(IV) were evaluated for abilities in inhibiting protein kinases aurora B and FLT-3 activity using radioisotope-based P81 filter-binding assay (Table 1).

Data set [1] relates to HepG2 human hepatocellular carcinoma cells. Put plainly: anti-proliferation, SRB colorimetric assay, HepG2. It counts as cell-based. The following applies: concentration required for 50% growth inhibition, read-out: IC50 (μM, mean ± S.D.). From the text:
HCT116 human colorectal carcinoma cells (Table 3), HepG2 human hepatocellular carcinoma cells (Table 4), and MV4-11 human acute myelomonocytic leukemia cells (Table 5).

Data set [2] deals with A549 human lung carcinoma cells. Nature of the data set: anti-proliferation, SRB colorimetric assay, A549. As to conditions: concentration required for 50% growth inhibition, read-out: IC50 (μM, mean ± S.D.). It counts as cell-based.
Another data set concerns the target aurora B (Homo sapiens, UniProt Q96GD4). Put plainly: radioisotope-based P81 filter-binding assay, aurora B kinase. The data set is classed as biochemical. As to conditions: averaged from two independent dose-response curves; read-out: Enzyme assay IC50 Aur B. How it is done: as §1
The subject of data set [3] is HCT116 human colorectal carcinoma cells. Put plainly: anti-proliferation, SRB colorimetric assay, HCT116. As to conditions: HCT-116, concentration required for 50% growth inhibition, read-out: IC50 (μM, mean ± S.D.). It counts as cell-based. The protocol:
(§2) HCT116 human colorectal carcinoma cells (Table 3), HepG2 human hepatocellular carcinoma cells (Table 4), and MV4-11 human acute myelomonocytic leukemia cells (Table 5). Cells were treated with the test compound and the concentration required for 50% growth inhibition (IC50) determined by sulfomodamine B (SRB) colorimetric assay.
Background: Sulforhodamine B stains cellular protein and so reports cell mass.

The subject of data set [4] is MV4-11 human acute myelomonocytic leukemia cells. Put plainly: anti-proliferation, SRB colorimetric assay, MV4-11. The data set is classed as cell-based. The following applies: concentration required for 50% growth inhibition. How it is done: as §2

aurora B, sequence (Q96GD4 whole entry): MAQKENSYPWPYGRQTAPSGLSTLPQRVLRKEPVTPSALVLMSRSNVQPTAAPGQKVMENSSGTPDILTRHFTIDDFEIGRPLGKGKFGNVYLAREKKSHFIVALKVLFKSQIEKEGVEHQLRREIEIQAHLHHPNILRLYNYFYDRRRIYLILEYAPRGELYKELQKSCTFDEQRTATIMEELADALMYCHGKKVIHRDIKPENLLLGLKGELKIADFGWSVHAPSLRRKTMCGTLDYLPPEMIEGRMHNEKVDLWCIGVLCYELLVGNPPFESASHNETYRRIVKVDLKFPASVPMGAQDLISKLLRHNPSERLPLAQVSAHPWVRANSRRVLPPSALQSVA

Consider `Cc1[nH]c(/C=C2\C(=O)Nc3cc(NC(=O)NC(=O)c4ccccc4F)ccc32)c(C)c1CCC(=O)O` [D54, (Z)-3-(5-((6-(3-(2-fluorobenzoyl)ureido)-2-oxoindolin-3-ylidene)methyl)-2,4-dimethyl-1H-pyrrol-3-yl)propanoic acid], for which the melting point – broadly, the temperature of the solid-liquid transition – is 267 to 272 °C (dec.). Besides, the IC50 (in general, the concentration that inhibits the measured activity by half) on FLT-3 amounted to 12.4 nM. Also, in data set [1], the IC50 came out at 0.47 ± 0.1 µM. The IC50 in data set [2] came to 0.11 ± 0.01 µM. For the same compound, the IC50 on aurora B is 1.5 nM. Further, in data set [3], the IC50 was 0.97 ± 0.21 µM.

In turn, `Cc1[nH]c(/C=C2\C(=O)Nc3cc(NC(=O)NC(=O)c4ccc(F)cc4)ccc32)c(C)c1CCC(=O)O` [D55, (Z)-3-(5-((6-(3-(4-fluorobenzoyl)ureido)-2-oxoindolin-3-ylidene)methyl)-2,4-dimethyl-1H-pyrrol-3-yl)propanoic acid] returned a melting point greater than 300 °C. Moreover, on FLT-3, the IC50 stood at 45.7 nM. Also, the IC50 in data set [1] is 0.21 ± 0.02 µM. Besides, the IC50 in data set [2] came out at 0.08 ± 0.01 µM. In addition, the IC50 on aurora B worked out at 1.8 nM. In data set [3], the IC50 amounted to 0.45 ± 0.02 µM.

Take `Cc1[nH]c(/C=C2\C(=O)Nc3cc(NC(=O)NC(=O)c4ccc(F)cc4F)ccc32)c(C)c1CCC(=O)O` [D56, (Z)-3-(5-((6-(3-(2,4-difluorobenzoyl)ureido]-2-oxoindolin-3-ylidene)methyl)-2,4-dimethyl-1H-pyrrol-3-yl)propanoic acid]: the melting point was 280 to 285 °C (dec.). In addition, at FLT-3, the IC50 worked out at 2.7 nM. In addition, in data set [1], the IC50 was 0.13 ± 0.06 µM. The 50% inhibitory concentration (IC50) in data set [2] turned out to be 0.1 ± 0.01 µM. The IC50 on aurora B turned out to be 2.1 nM. The IC50 in data set [3] was 0.32 ± 0.07 µM.

For the compound `COc1ccc(C(=O)NC(=O)Nc2ccc3c(c2)NC(=O)/C3=C\c2[nH]c(C)c(C(=O)NCCN(C)C)c2C)c(F)c1` [D68], the concentration for half-maximal inhibition (IC50) at FLT-3 came out at 16.2 nM; in data set [1], 0.74 ± 0.07 µM; in data set [2], 0.47 ± 0.01 µM; on aurora B it was 10.5 nM; in data set [3], 0.87 ± 0.06 µM.

Turning to `CCN(CC)CCNC(=O)c1c(C)[nH]c(/C=C2\C(=O)Nc3cc(NC(=O)NC(=O)c4ccc(OC)cc4F)ccc32)c1C` [D69, (Z)—N-(2-(diethylamino)ethyl)-5-((6-(3-(2-fluoro-4-methoxybenzoyl)ureido)-2-oxoindolin-3-ylidene)methyl)-2,4-dimethyl-1H-pyrrole-3-carboxamide], the melting point is 275 to 280 °C (dec.). Further, the IC50 on FLT-3 turned out to be 4.4 nM. In addition, in data set [1], the concentration for half-maximal inhibition (IC50) was 0.88 ± 0.04 µM. Besides, the IC50 in data set [2] is 0.46 ± 0.07 µM. Also, at aurora B, the IC50 is 7.6 nM. Besides, in data set [3], the IC50 was determined as 0.91 ± 0.01 µM.

Consider `COc1ccc(C(=O)NC(=O)Nc2ccc3c(c2)NC(=O)/C3=C\c2[nH]c(C)c(C(=O)NCCN3CCCC3)c2C)c(F)c1` [D70, (Z)-5-((6-(3-(2-fluoro-4-methoxybenzoyl)ureido)-2-oxoindolin-3-ylidene)methyl)-2,4-dimethyl-N-(2-(pyrrolidin-1-yl)ethyl)-1H-pyrrole-3-carboxamide], for which the IC50 came to 0.5 nM on FLT-3; 0.68 ± 0.03 µM in data set [1]; 0.56 ± 0.05 µM in data set [2]; 0.4 nM at aurora B; 0.85 ± 0.08 µM in data set [3].

As for `O=C1Nc2cc(NC(=O)c3cccn(-c4ccc(Cl)c(Cl)c4)c3=O)ccc2/C1=C/c1ccc[nH]1` [D110, (Z)—N-(3-((1H-pyrrol-2-yl)methylene)-2-oxoindolin-6-yl)-1-(3,4-dichlorophenyl)-2-oxo-1,2-dihydropyridine-3-carboxamide], the half-inhibitory concentration (IC50) in data set [4] is 2.4 nM; at FLT-3, 59.9 nM; in data set [1], 0.82 ± 0.03 µM; on aurora B, greater than 1000 nM; in data set [3], 0.85 ± 0.13 µM.

With `COc1ccc(-c2c[nH]cc(C(=O)Nc3ccc4c(c3)NC(=O)/C4=C\c3ccc[nH]3)c2=O)cc1` [D128, (Z)—N-(3-((1H-pyrrol-2-yl)methylene)-2-oxoindolin-6-yl)-5-(4-methoxyphenyl)-4-oxo-1,4-dihydropyridine-3-carboxamide], the melting point was greater than 300 °C. In data set [4], inhibition was half-maximal at 25 nM (IC50). Besides, the IC50 on FLT-3 was determined as 24.9 nM. In data set [1], the IC50 came to 0.81 ± 0.04 µM. Further, the IC50 in data set [2] amounted to 0.62 ± 0.06 µM. The IC50 at aurora B was determined as 10.2 nM. Moreover, in data set [3], the IC50 was 0.63 ± 0.09 µM.

As to `O=C1Nc2cc(NC(=O)c3c[nH]cc(-c4ccc(Cl)cc4)c3=O)ccc2/C1=C/c1ccc[nH]1` [D130, (Z)—N-(3-((1H-pyrrol-2-yl)methylene)-2-oxoindolin-6-yl)-5-(4-chlorophenyl)-4-oxo-1,4-dihydropyridine-3-carboxamide], the melting point is greater than 300 °C. 4.38 nM corresponded to half-maximal inhibition in data set [4] (IC50). The IC50 at FLT-3 is 7.6 nM. Besides, the IC50 in data set [1] is 0.67 ± 0.05 µM. The IC50 in data set [2] is less than 0.1 µM. Besides, on aurora B, the half-maximal inhibitory concentration (IC50) worked out at 53.8 nM. The IC50 in data set [3] came to 0.57 ± 0.04 µM.

In the case of `O=C1Nc2cc(NC(=O)c3c[nH]cc(-c4cc(F)cc(F)c4)c3=O)ccc2/C1=C/c1ccc[nH]1` [D136, (Z)—N-(3-((1H-pyrrol-2-yl)methylene)-2-oxoindolin-6-yl)-4-oxo-5-(3,5-difluorophenyl)-1,4-dihydropyridine-3-carboxamide], the melting point is greater than 300 °C. The IC50 on FLT-3 was greater than 1000 nM. Moreover, the IC50 in data set [1] came to 0.6 µM. Besides, the IC50 in data set [2] worked out at 0.6 µM. Also, the half-maximal inhibitory concentration (IC50) on aurora B is 123 nM. In data set [3], the IC50 amounted to 0.6 µM.

Take `Cc1[nH]c(/C=C2\C(=O)Nc3cc(NC(=O)c4c[nH]cc(-c5ccc(F)cc5)c4=O)ccc32)c(C)c1C(=O)N1CCN(C)CC1` [D149, (Z)—N-(3-((3,5-dimethyl-4-(4-methylpiperazine-1-carbonyl)-1H-pyrrol-2-yl)methylene)-2-oxoindolin-6-yl)-5-(4-fluorophenyl)-4-oxo-1,4-dihydropyridine-3-carboxamide]: the melting point was 283 °C (dec.). For the same compound, half-maximal inhibition in data set [4] (IC50) was put at 0.05 nM. Moreover, at FLT-3, the IC50 came out at 1.4 nM. The half-inhibitory concentration (IC50) in data set [1] was 0.65 ± 0.11 µM. Moreover, in data set [2], the IC50 is 0.55 ± 0.05 µM. Further, the half-maximal inhibitory concentration (IC50) at aurora B stood at 70.5 nM.

For `Cc1[nH]c(/C=C2\C(=O)Nc3cc(NC(=O)c4c[nH]cc(-c5ccc(F)cc5)c4=O)ccc32)c(C)c1CC(=O)N1CCN(C)CC1` [D150, (Z)—N-(3-((3,5-dimethyl-4-(2-(4-methylpiperazin-1-yl)-2-oxoethyl)-1H-pyrrol-2-yl)methylene)-2-oxoindolin-6-yl)-5-(4-fluorophenyl)-4-oxo-1,4-dihydropyridine-3-carboxamide], the melting point was greater than 300 °C. Further, it took 0.1 nM to reach half-maximal inhibition in data set [4] (IC50). In addition, on FLT-3, the IC50 worked out at 10.3 nM. In addition, the IC50 in data set [1] is 0.7 ± 0.07 µM. The IC50 in data set [2] worked out at 0.57 ± 0.04 µM. The IC50 at aurora B worked out at 91.6 nM.

`Cc1[nH]c(/C=C2\C(=O)Nc3cc(NC(=O)c4c[nH]cc(-c5ccc(F)cc5)c4=O)ccc32)c(C)c1CCC(=O)N1CCN(C)CC1` [D151, (Z)—N-(3-((3,5-dimethyl-4-(3-(4-methylpiperazin-1-yl)-3-oxopropyl)-1H-pyrrol-2-yl)methylene)-2-oxoindolin-6-yl)-5-(4-fluorophenyl)-4-oxo-1,4-dihydropyridine-3-carboxamide] had a melting point of 250 °C. This compound had an IC50 in data set [4] of 0.34 nM. Also, the concentration for half-maximal inhibition (IC50) on FLT-3 came to 4.8 nM. For the same compound, the IC50 in data set [1] came out at 0.88 ± 0.13 µM. Further, the IC50 in data set [2] was 0.66 ± 0.07 µM. Further, the half-inhibitory concentration (IC50) on aurora B is 107 nM.
